According to patent US11560371B2, “Cereblon binding compounds, compositions thereof, and methods of treatment therewith” (Celgene Corporation, priority 2020, dated 2023):
Counter-ions that a name gives are not always drawn.

Molecular target: T1, AR (Homo sapiens, UniProt P10275)
T1 construct: endogenous in cells; host or cells: VCaP cells
T1 sequence (P10275 1-920): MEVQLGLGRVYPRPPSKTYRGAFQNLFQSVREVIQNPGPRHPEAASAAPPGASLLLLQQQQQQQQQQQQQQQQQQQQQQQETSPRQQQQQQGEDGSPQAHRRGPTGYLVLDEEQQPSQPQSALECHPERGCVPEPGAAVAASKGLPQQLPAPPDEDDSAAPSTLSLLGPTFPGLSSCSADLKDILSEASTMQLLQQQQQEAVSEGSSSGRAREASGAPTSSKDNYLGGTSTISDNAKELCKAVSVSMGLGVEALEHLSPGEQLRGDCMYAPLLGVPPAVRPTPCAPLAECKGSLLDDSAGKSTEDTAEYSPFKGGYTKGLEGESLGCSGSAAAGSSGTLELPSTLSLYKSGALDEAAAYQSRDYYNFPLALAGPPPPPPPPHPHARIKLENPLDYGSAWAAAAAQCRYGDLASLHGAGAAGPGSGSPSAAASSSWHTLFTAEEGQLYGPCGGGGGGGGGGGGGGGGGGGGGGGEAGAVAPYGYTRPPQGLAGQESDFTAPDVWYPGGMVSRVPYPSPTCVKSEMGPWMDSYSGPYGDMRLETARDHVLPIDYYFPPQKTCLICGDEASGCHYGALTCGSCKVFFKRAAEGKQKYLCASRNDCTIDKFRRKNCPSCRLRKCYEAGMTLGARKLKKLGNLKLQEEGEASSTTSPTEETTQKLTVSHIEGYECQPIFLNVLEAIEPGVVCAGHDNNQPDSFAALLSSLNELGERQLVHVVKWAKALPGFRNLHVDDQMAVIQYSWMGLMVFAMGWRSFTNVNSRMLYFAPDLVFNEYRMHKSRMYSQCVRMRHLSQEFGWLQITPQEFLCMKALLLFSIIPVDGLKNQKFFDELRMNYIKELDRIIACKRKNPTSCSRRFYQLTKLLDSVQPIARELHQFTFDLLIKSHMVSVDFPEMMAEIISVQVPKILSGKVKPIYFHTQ
Experiment: VCAP AR Degradation Assay
Type: cell-based
Settings: VCaP cells, 24 h, AR ELISA; for DC50: concentration of compound when AR level = 50% of DMSO control (50% AR degradation); for Y: lowest measured AR level normalized to DMSO control (AR degradation efficiency)
Procedure: VCAP AR Degradation Assay. Test compounds were pre-dispensed into a Corning CellBind 96-well clear bottom plate (Cat #3300) using an acoustic dispenser to make a 10-point concentration series at 1:3 dilution for each compound. The final top concentration of each compound was 5 μM. DMSO at a final concentration of 0.1% was used as a control. VCaP cells cultured in DMEM with 8% fetal bovine serum (FBS) were seeded at 50K cells per well in a 200 μL volume into the compound plate and incubated at 37° C. in a CO2 incubator for 24 h. The medium was carefully removed from the cells and the plate was placed on ice. […] ice-cold 1× cell lysis buffer from Cell Signaling Technologies (Cat #9803) was added to each well of the cells and the plate was incubated at 4° C. on a shaker for 1 h. Fifteen μL of cell lysate was used for AR ELISA detection using a PathScan Total Sandwich AR ELISA kit (Cell Signaling Technology, Cat #12580). AR levels in compound-treated wells were normalized to that of DMSO control and expressed as percent of control (PoC) (y). A Four Parameter Logistic Model (Sigmoidal Dose-Response Model) was used to determine the compound's DC50, and EC50, using the following equation: y=(A+((B−A)/(1+((C/x)^D)))) • A=YMin (lowest AR level normalized to DMSO control in response to compound treatment, as determined by curve fit) • B=YMax (maximum AR level as determined by curve fit) • C=EC50 • D=Hill Slope • x=compound concentration • EC50=the concentration of compound when y=[…] • DC50=the concentration of the compound when y=50% of DMSO control (50% AR degradation) • y=AR protein level normalized to DMSO control
The lowest measured AR level normalized to DMSO control in response to compound treatment, termed Y value, was used to characterize the compound-mediated AR degradation efficiency.

Row | Compound | DC50 [nM] | Y | DC50 (hydrochloride) [nM]
1 | C[C@@H]1CN(CCC[C@H]2CC[C@H](N3C(=S)N(c4cnc(C#N)c(Cl)c4)C(=O)C3(C)C)CC2)C[C@H](C)N1CC(=O)Nc1cccc2c(N3CCC(=O)NC3=O)nn(C)c12 [Cmpd 12, 2-((2R,6S)-4-(3-(trans-4-(3-(5-Chloro-6-cyanopyridin-3-yl)-5,5-dimethyl-4-oxo-2-thioxoimidazolidin-1-yl)cyclohexyl)propyl)-2,6-dimethylpiperazin-1-yl)-N-(3-(2,4-dioxotetrahydropyrimidin-1(2H)-yl)-1-methyl-1H-indazol-7-yl)acetamide hydrochloride] | 2 to 10 | ** (20%<Y≤%) | –
2 | C[C@@H]1C[C@@H](CCO[C@H]2CC[C@H](N3C(=S)N(c4ccc(C#N)c(C(F)(F)F)c4)C(=O)C3(C)C)CC2)C[C@H](C)N1CC(=O)Nc1cccc2c(N3CCC(=O)NC3=O)nn(C)c12 [Cmpd 13, 2-((2R,4s,6S)-4-(2-((trans-4-(3-(4-Cyano-3-(trifluoromethyl)phenyl)-5,5-dimethyl-4-oxo-2-thioxoimidazolidin-1-yl)cyclohexyl)oxy)ethyl)-2,6-dimethylpiperidin-1-yl)-N-(3-(2,4-dioxotetrahydropyrimidin-1(2H)-yl)-1-methyl-1H-indazol-7-yl)acetamide hydrochloride] | 2 to 10 | * (0<Y≤20%) | –
3 | C[C@@H]1C[C@H](CCO[C@H]2CC[C@H](N3C(=S)N(c4ccc(C#N)c(C(F)(F)F)c4)C(=O)C3(C)C)CC2)C[C@H](C)N1CC(=O)Nc1cccc2c(N3CCC(=O)NC3=O)nn(C)c12 [Cmpd 14, 2-((2R,4r,6S)-4-(2-((trans-4-(3-(4-Cyano-3-(trifluoromethyl)phenyl)-5,5-dimethyl-4-oxo-2-thioxoimidazolidin-1-yl)cyclohexyl)oxy)ethyl)-2,6-dimethylpiperidin-1-yl)-N-(3-(2,4-dioxotetrahydropyrimidin-1(2H)-yl)-1-methyl-1H-indazol-7-yl)acetamide hydrochloride] | 2 to 10 | * (0<Y≤20%) | –
4 | C[C@@H]1CN(CCO[C@H]2CC[C@H](N3C(=S)N(c4ccc(C#N)c(C(F)(F)F)c4)C(=O)C3(C)C)CC2)C[C@H](C)N1CCOc1cccc2c(N3CCC(=O)NC3=O)nn(C)c12 [Cmpd 15, 4-(3-(trans-4-(2-((3R,5S)-4-(2-((3-(2,4-Dioxotetrahydropyrimidin-1(2H)-yl)-1-methyl-1H-indazol-7-yl)oxy)ethyl)-3,5-dimethylpiperazin-1-yl)ethoxy)cyclohexyl)-4,4-dimethyl-5-oxo-2-thioxoimidazolidin-1-yl)-2-(trifluoromethyl)benzonitrile hydrochloride] | 100 to 10000 | ** (20%<Y≤%) | –
5 | C[C@@H]1CN(CCO[C@H]2CC[C@H](N3C(=S)N(c4ccc(C#N)c(C(F)(F)F)c4)C(=O)C3(C)C)CC2)C[C@H](C)N1CCCOc1cccc2c(N3CCC(=O)NC3=O)nn(C)c12 [Cmpd 16, 4-(3-(trans-4-(2-((3S,5R)-4-(3-((3-(2,4-dioxotetrahydropyrimidin-1(2H)-yl)-1-methyl-1H-indazol-7-yl)oxy)propyl)-3,5-dimethylpiperazin-1-yl)ethoxy)cyclohexyl)-4,4-dimethyl-5-oxo-2-thioxoimidazolidin-1-yl)-2-(trifluoromethyl)benzonitrile hydrochloride] | 100 to 10000 | *** (30%<Y<60%) | –
6 | C[C@@H]1CN(CCCC[C@H]2CC[C@H](N3C(=S)N(c4ccc(C#N)c(C(F)(F)F)c4)C(=O)C3(C)C)CC2)C[C@H](C)N1CC(=O)Nc1cccc2c(N3CCC(=O)NC3=O)nn(C)c12 [Cmpd 17, 2-((2R,6S)-4-(4-(trans-4-(3-(4-Cyano-3-(trifluoromethyl)phenyl)-5,5-dimethyl-4-oxo-2-thioxoimidazolidin-1-yl)cyclohexyl)butyl)-2,6-dimethylpiperazin-1-yl)-N-(3-(2,4-dioxotetrahydropyrimidin-1(2H)-yl)-1-methyl-1H-indazol-7-yl)acetamide hydrochloride] | 2 to 10 | ** (20%<Y≤%) | –
7 | C[C@@H]1CN(CCO[C@H]2CC[C@H](N3C(=S)N(c4ccc(C#N)c(C(F)(F)F)c4)C(=O)C3(C)C)CC2)C[C@H](C)N1CCNc1cccc2c(N3CCC(=O)NC3=O)nn(C)c12 [Cmpd 18, 4-(3-(trans-4-(2-((3R,5S)-4-(2-((3-(2,4-Dioxotetrahydropyrimidin-1(2H)-yl)-1-methyl-1H-indazol-7-yl)amino)ethyl)-3,5-dimethylpiperazin-1-yl)ethoxy)cyclohexyl)-4,4-dimethyl-5-oxo-2-thioxoimidazolidin-1-yl)-2-(trifluoromethyl)benzonitrile hydrochloride] | – | *** (30%<Y<60%) | 10 to 100
8 | Cn1nc(N2CCC(=O)NC2=O)c2cccc(NC(=O)CN3CCN(CCO[C@H]4CC[C@H](N5C(=S)N(c6ccc(C#N)c(C(F)(F)F)c6)C(=O)C5(C)C)CC4)C[C@@H]3C(F)(F)F)c21 [Cmpd 20, 2-((R)-4-(2-((trans-4-(3-(4-Cyano-3-(trifluoromethyl)phenyl)-5,5-dimethyl-4-oxo-2-thioxoimidazolidin-1-yl)cyclohexyl)oxy)ethyl)-2-(trifluoromethyl)piperazin-1-yl)-N-(3-(2,4-dioxotetrahydropyrimidin-1(2H)-yl)-1-methyl-1H-indazol-7-yl)acetamide hydrochloride] | ≤ 2 | ** (20%<Y≤%) | –
9 | C[C@@H]1CN(CCO[C@H]2CC[C@H](N3C(=S)N(c4ccc(C#N)c(S(F)(F)(F)(F)F)c4)C(=O)C3(C)C)CC2)C[C@H](C)N1CC(=O)Nc1cccc2c(N3CCC(=O)NC3=O)nn(C)c12 [Cmpd 21, 2-((2S,6R)-4-(2-((trans-4-(3-(4-Cyano-3-(pentafluoro-λ^6-sulfaneyl)phenyl)-5,5-dimethyl-4-oxo-2-thioxoimidazolidin-1-yl)cyclohexyl)oxy)ethyl)-2,6-dimethylpiperazin-1-yl)-N-(3-(2,4-dioxotetrahydropyrimidin-1(2H)-yl)-1-methyl-1H-indazol-7-yl)acetamide hydrochloride] | 100 to 10000 | *** (30%<Y<60%) | –
10 | Cn1nc(N2CCC(=O)NC2=O)c2cccc(NC(=O)CN3CCN(CCC[C@H]4CC[C@H](N5C(=S)N(c6cnc(C#N)c(C(F)(F)F)c6)C(=O)C5(C)C)CC4)C[C@@H]3C(F)(F)F)c21 [Cmpd 22, 2-((R)-4-(3-(trans)-4-(3-(6-cyano-5-(trifluoromethyl)pyridin-3-yl)-5,5-dimethyl-4-oxo-2-thioxoimidazolidin-1-yl)cyclohexyl)propyl)-2-(trifluoromethyl)piperazin-1-yl)-N-(3-(2,4-dioxotetrahydropyrimidin-1(2H)-yl)-1-methyl-1H-indazol-7-yl)acetamide hydrochloride] | 2 to 10 | * (0<Y≤20%) | –
11 | Cn1nc(N2CCC(=O)NC2=O)c2cccc(NC(=O)CN3CCN(CCC[C@H]4CC[C@H](N5C(=S)N(c6ccc(C#N)c(C(F)(F)F)c6)C(=O)C5(C)C)CC4)C[C@@H]3C(F)(F)F)c21 [Cmpd 23, 2-((R)-4-(3-(trans-4-(3-(4-cyano-3-(trifluoromethyl)phenyl)-5,5-dimethyl-4-oxo-2-thioxoimidazolidin-1-yl)cyclohexyl)propyl)-2-(trifluoromethyl)piperazin-1-yl)-N-(3-(2,4-dioxotetrahydropyrimidin-1(2H)-yl)-1-methyl-1H-indazol-7-yl)acetamide] | 2 to 10 | ** (20%<Y≤%) | –
